Patent US5225436A, “Aryl substituted naphthalene derivatives” (Schering Corporation, priority 1991, dated 1993)
Read-outs that look alike come from different tables or passages of the source.

Columns and labels:
[1] = system: SRS-A / leukotriene release from antigen-challenged, sensitized guinea pig lung; test: Inhibition of SRS-A (leukotriene) release from antigen-challenged, sensitized guinea pig lung; format: cell-based; parameters: inhibition: dose or concentration left out as unconfirmed; conditions: Cavia porcellus; for inhibition: Dose 30 μm (μM)
Text: The anti-allergy method of this invention is identified by tests which measure a compound's inhibition of leukotriene release in sensitized guinea pigs. Sensitized guinea pigs are killed by a blow to the head and the lungs removed and cleaned of visible connective tissue, trachea and large blood vessels. The lungs from individual animals are sliced into fragments approximately 1 mm in thickness using a McIlwain tissue chopper and then washed with oxygenated Tyrode's buffer. Weighed aliquots (approximately 400 mg wet weight) of lung are transferred into vials containing 2 ml of fresh Tyrode's solution (containing 10 mM cysteine) and incubated in the presence or absence of test compound for 12 min at 37° C. The tissues are then challenged with 20 μg ovalbumin/ml (final concentration) and incubated for 15 min. To measure leukotriene release, an aliquot of supernatant fluid is extracted with 4 volumes of 100% ethanol. After removal of the precipitated protein, the clear fluid is dried under a stream of N2 gas. The leukotriene content is measured by a radioimmunoassay using [^3 H]LTC4 and antiserum obtained from New England Nuclear. The cross-reactivity of the antiserum for LTD4 is 55%. Percent inhibition of lekotriene release is calculated by comparing for each lung the release in the presence of the test compound to that in the absence of test compound. Representative compounds of the invention at a relative dose of 50 μM of tissue are found to inhibit leukotriene release in the test procedure as indicated below in Table 1: […]

5-lipoxygenase = target: T1, 5-lipoxygenase (Homo sapiens, UniProt P09917); test: 5-Lipoxygenase assay with human neutrophils; format: cell-based; conditions: 5 min, Human PMN, dose 15 μm (μM)
T1 construct: Human polymorphonuclear leukocytes (neutrophils) were obtained from normal healthy volunteers; endogenous in cells; host or cells: human blood neutrophils from healthy volunteers
T1 sequence (P09917 1-674): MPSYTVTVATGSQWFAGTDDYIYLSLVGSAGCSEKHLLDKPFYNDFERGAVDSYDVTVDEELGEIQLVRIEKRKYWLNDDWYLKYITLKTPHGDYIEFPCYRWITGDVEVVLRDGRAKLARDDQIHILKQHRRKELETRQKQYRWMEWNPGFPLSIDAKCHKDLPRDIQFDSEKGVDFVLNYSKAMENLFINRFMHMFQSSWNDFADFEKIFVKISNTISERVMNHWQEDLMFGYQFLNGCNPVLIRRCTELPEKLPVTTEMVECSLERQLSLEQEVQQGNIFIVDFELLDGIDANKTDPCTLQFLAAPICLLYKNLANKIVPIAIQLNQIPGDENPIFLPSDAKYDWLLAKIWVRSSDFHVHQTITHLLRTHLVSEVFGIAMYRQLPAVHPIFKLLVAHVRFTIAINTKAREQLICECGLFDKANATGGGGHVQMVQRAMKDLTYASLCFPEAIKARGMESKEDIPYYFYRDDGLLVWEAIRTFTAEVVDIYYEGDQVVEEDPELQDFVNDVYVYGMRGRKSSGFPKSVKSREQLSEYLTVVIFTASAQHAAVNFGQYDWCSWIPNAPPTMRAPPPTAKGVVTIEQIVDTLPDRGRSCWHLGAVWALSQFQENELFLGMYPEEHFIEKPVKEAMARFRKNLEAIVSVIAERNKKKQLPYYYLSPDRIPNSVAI
Description: Human polymorphonuclear leukocytes (neutrophils) were obtained from normal healthy volunteers by venipuncture and collected with heparin anticoagulant. Neutrophils were isolated by Dextran/Ficol sedimentation as described (Billah et al., J. Biol. Chem. 260, 6899-6906 (1985)). In brief, 30 ml of blood was mixed with 5 ml of dextran (Sigma) solution and kept at 37° C. for 30 min. The upper white cell-rich layer was removed and 10 ml was layered on 9 ml of Ficol-Paque solution (Pharmacia) and centrifuged at 280 xg for 10 min. at 5° C. The supernatant was removed and the neutrophil pellet was resuspended in HEPES buffer containing 25 mM N-2-hydroxyethylpiperazine-N^1 -2-ethanesulfonic acid HEPES, 125 mM NaCl, 2.5 mM KCl, 0.7 mM MgCl2, […] 10 mM glucose at pH 7.4. The red cells in the suspension were lysed by hypotonic shock. The neutrophils were washed by centrifugation in HEPES buffer two times and finally resuspended at a concentration of 20×10^6 cells/ml in the presence of 1 mM CaCl2.
Neutrophils (0.2 ml of suspension) were preincubated with dimethylsulfoxide (DMSO) vehicle with or without test compound (1 ul) for 4 minutes then incubated for 5 minutes with [^14 C] arachidonic acid (Amersham, 59 Ci/mole) at a 9 uM final concentration, and the calcium ionophore A23187 (Calbiochem) at a 1 uM final concentration. These stimulants were added in 10 ul of water:ethanol (9:1). The reaction was stopped by addition of methanol (0.4 ml), and cellular debris was removed by centrifugation. Aliquots (100 ul) of the incubations were run on a Waters two pump HPLC system fitted with a DuPont Zorbax ODS, 5u, […] Reliance Cartridge column and C18 "Guard Pak". The column was initially eluted at 2 ml/min with 80% of the mixture water:methanol:acetic acid (46:54:0.08) containing 1 mM EDTA adjusted to pH 6.0 with ammonium hydroxide (Pump A) and 20% methanol (Pump B). At 10 minutes, a linear gradient to reach 100% methanol (Pump B) at 27 minutes was established. Between 27 and 28 minutes, methanol was exchanged for the initial eluting solvent and by 35 minutes the column had been reequilibrated for the next sample. The effluent was analyzed by a continuous flow radioactivity monitor (model ROMONA-D) interfaced with a Hewlett Packard Lab Automation System for quantitation of radioactive products. These were predominantly leukotriene B4 (LTB4) which eluted at 7 minutes, and 5-hydroxyeicosatetraenoic acid (5-HETE) which eluted at 20 minutes.

inhibition at 15 µM (5-lipoxygenase; read-out: % Inhibition 5-HETE) [%]	inhibition at 15 µM (5-lipoxygenase; read-out: % Inhibition LTB) [%]	SMILES	inhibition [1] [%]	further results
0	4	COc1cc(OC)c2c(c1)C(C)(C)C(c1ccc(OC)c(OC)c1)CC2NC(C)=O (centres unmarked)	11	
42		COc1ccc2c(c1)C(C)(C)C(c1ccc(OC)c(OC)c1)CC2=O (centres unmarked)	28	
54		COc1cc(OC)c2c(c1)C(C)(C)C(c1ccc(OC)c(OC)c1)CC(C)(C)C2=O (centres unmarked) [drawing 90 [X=O; W=CH3; J=CH3]]	25	
0	0	COc1ccc(C2CC(=O)c3c(cc(OC)c(OC)c3OC)C2(C)C)cc1OC (centres unmarked) [3-(3,4-dimethoxyphenyl)-3,4-dihydro-6,7,8-trimethoxy-4,4-dimethyl-1(2H)naphthalenone]		inhibition at 10 µM [1]: 1%
0	0	COc1cc(OC)c2c(c1)C(C)(C)C(c1ccccc1)CC2=O (centres unmarked)		inhibition at 10 µM [1]: 6%
74		CON=C1CC(c2ccc(OC)c(OC)c2)C(C)(C)c2cc(OC)ccc21 (centres unmarked)	0	
0	0	COc1cc(OC)cc(C2=CC(=O)c3c(OC)cc(OC)cc3C2(C)C)c1		
46	46	COc1cc(OC)cc(C2CCC(=O)c3c(OC)cc(OC)cc3C2(C)C)c1 (centres unmarked) [8-(3,5-dimethoxyphenyl)-6,7,8,9-tetradydro-2,4-dimethoxy-9,9-dimethyl-5H-benzocyclohepten-5-one]		
41	50	COc1cc(OC)c2c(c1)C(C)(C)C(c1ccc(OC)c(OC)c1)CC2=NNC(=O)c1ccccc1O (centres unmarked)		

Continued, compound first:

SMILES	inhibition at 15 µM (5-lipoxygenase; read-out: % Inhibition 5-HETE) [%]	inhibition at 15 µM (5-lipoxygenase; read-out: % Inhibition LTB) [%]	inhibition [1] [%]	further results
COc1ccc(CC2CC(C)(C)c3cc(OC)cc(OC)c3C2=O)cc1 (centres unmarked) [drawing 85 [A=drawing 86; B=H]]			0	
COc1cc(O)c2c(c1)C(C)(C)C(c1ccc(OC)c(OC)c1)=CC2=O				inhibition at 50 µM [1]: 10%
CC(=O)Oc1cc(OC(C)=O)c2c(c1)C(C)(C)C(c1ccc(OC(C)=O)c(OC(C)=O)c1)CC2=O (centres unmarked)				inhibition at 50 µM [1]: 48%
CC(=O)Oc1cc(OC(C)=O)c2c(c1)C(C)(C)[C@H](c1ccc(OC(C)=O)c(OC(C)=O)c1)[C@H](OC(C)=O)C2=O (relative stereo)				inhibition at 50 µM [1]: 26%
CC(=O)Oc1cc(OC(C)=O)c2c(c1)C(C)(C)[C@H](c1ccc(OC(C)=O)c(OC(C)=O)c1)[C@@H](OC(C)=O)C2=O (relative stereo)				inhibition at 50 µM [1]: 41%
COc1cc(OC)c2c(c1)C(C)(C)C(c1ccc(OC)c(OC)c1)C(C=O)C2=O (centres unmarked)	16	0	19	
COc1cc(OC)c2c(c1)C(C)(C)[C@H](c1ccc(OC)c(OC)c1)[C@@H](OC(C)=O)C2=O (relative stereo)				inhibition at 50 µM [1]: 12%
COc1cc(OC)c2c(c1)C(C)(C)C(c1ccc(OC)c(OC)c1)=C(O)C2=O				inhibition at 50 µM [1]: 24%
COc1cc(OC)c2c(c1)C(C)(C)C(c1ccc(OC)c(OC)c1)CC2Sc1ccc(Cl)cc1 (centres unmarked)			14	
COc1cc(OC)cc(C2=CC(=O)c3c(OC)cc(OC)cc3C2(C)C)c1 [drawing 84 [K=H]]			33	
COc1cc(OC)c2c(c1)C(C)(C)C(c1ccc(OC)c(OC)c1)CC2N (centres unmarked)	0	0	0	
COc1cc(OC)c2c(c1)C(C)(C)C(c1ccc(OC)c(OC)c1)CC21OCCO1 (centres unmarked)			23	
COc1cc(OC)c2c(c1)C(C)(C)C(c1ccc(OC)c(OC)c1)C(C)C2=NO (centres unmarked)	31			inhibition at 10 µM [1]: 13%
COc1cc(OC)cc(C2=CC(=O)c3c(cc(OC)c(OC)c3OC)C2(C)C)c1 [drawing 84 [K=OCH3]]			21	
COc1ccc(CC2(Cc3ccc(OC)cc3)CC(C)(C)c3cc(OC)cc(OC)c3C2=O)cc1 [drawing 85 [A=drawing 87; B=drawing 88]]			16	
